Data as given in ChEMBL document CHEMBL1134697, “Synthesis and antiproliferative activity of epoxy and bromo compounds derived from estrone” (Bioorg Med Chem Lett, 2001).

How the values were obtained:
P388 = test: Concentration required for antiproliferative activity against P388 cell survival by 50%; type: functional, cell-based; conditions: Mus musculus
[1] = Antiproliferative activity was determined after 48 hr exposure to human melanoma Fem-X cell; type: functional, cell-based
HeLa = test: Antiproliferative activity was determined after 48 hr exposure to human cervix carcinoma HeLa cells; type: functional, cell-based
K562 [2] = test: Antiproliferative activity was determined after 48 hr exposure to human myelogenous leukemia K562 cells; type: functional, cell-based; conditions: K562, 48 h
[3] = Antiproliferative activity was determined after 72 hr exposure to human melanoma Fem-x cells; type: functional, cell-based
K562 [4] = test: Antiproliferative activity was determined after 72 hr exposure to human myelogenous leukemia K562 cells; type: functional, cell-based; conditions: K562, 72 h
[5] = Antiproliferative activity was determined after 72 hr exposure to normal human peripheral blood mononuclear cells (PBMC) in the absence of 5 ug/mL Phytohemagglutinine; type: functional
[6] = Antiproliferative activity was determined after 72 hr exposure to normal human peripheral blood mononuclear cells (PBMC) in the presence of 5 ug/mL Phytohemagglutinine; type: functional

Work on `O=C1C(Br)=C[C@H](O)[C@H]2O[C@@H]12` yielded an IC50 (P388) of 0.049 µM.
Compound `C[C@]12CCC3C(CCC4=CC(=O)C=C[C@@]43O)C1CCC2=O` (some centres undefined) has an IC50 [1] greater than 100 µM, an IC50 (HeLa) greater than 100 µM and an IC50 (K562 [2]) greater than 100 µM.
`C[C@]12CCC3[C@@H](CC[C@]45O[C@H]4C(=O)C(Br)=C[C@]35O)[C@@H]1CCC2=O` (some centres undefined) showed an IC50 [1] of 6 µM, an IC50 [3] of 1 µM and an IC50 (HeLa) of 2.5 µM. For the same compound, the IC50 (K562 [2]) was 1.2 µM, the IC50 (K562 [4]) was 0.7 µM and the IC50 [5] was 2.9 µM. For the same compound, the IC50 [6] was 1.3 µM.
For `C[C@]12CC[C@H]3[C@@H](CC[C@]45O[C@H]4C(=O)C=C[C@]35O)[C@@H]1CCC2=O`, the IC50 [1] was 7.1 µM, the IC50 (HeLa) was 5.73 µM and the IC50 (K562 [2]) was 6.22 µM.
`C[C@]12CCC3[C@@H](CCC4=C(Br)C(=O)C=C[C@@]43O)[C@@H]1CCC2=O` (some centres undefined) gave an IC50 [1] of 14.5 µM, an IC50 [3] of 4.6 µM and an IC50 (HeLa) of 6.17 µM. It also gave an IC50 (K562 [2]) of 13.7 µM, an IC50 (K562 [4]) of 5.9 µM and an IC50 [5] of 12.3 µM. It also gave an IC50 [6] of 5.2 µM.
Work on `C[C@]12CCC3C(CC[C@]45O[C@H]4[C@@H](O)C=C[C@]35O)C1CCC2O` (some centres undefined) yielded an IC50 [1] greater than 270 µM, an IC50 (HeLa) greater than 270 µM and an IC50 (K562 [2]) greater than 270 µM.
